The text below walks through data of ChEMBL document CHEMBL1131494, “Novel 17-azolyl steroids, potent inhibitors of human cytochrome 17 alpha-hydroxylase-C17,20-lyase (P450(17) alpha): potential agents for the treatment of prostate cancer” (J Med Chem, 1998).

Data set [1] addresses T1, Steroid 17-alpha-hydroxylase/17,20 lyase (Homo sapiens, UniProt P05093).
T1 sequence (P05093 whole entry): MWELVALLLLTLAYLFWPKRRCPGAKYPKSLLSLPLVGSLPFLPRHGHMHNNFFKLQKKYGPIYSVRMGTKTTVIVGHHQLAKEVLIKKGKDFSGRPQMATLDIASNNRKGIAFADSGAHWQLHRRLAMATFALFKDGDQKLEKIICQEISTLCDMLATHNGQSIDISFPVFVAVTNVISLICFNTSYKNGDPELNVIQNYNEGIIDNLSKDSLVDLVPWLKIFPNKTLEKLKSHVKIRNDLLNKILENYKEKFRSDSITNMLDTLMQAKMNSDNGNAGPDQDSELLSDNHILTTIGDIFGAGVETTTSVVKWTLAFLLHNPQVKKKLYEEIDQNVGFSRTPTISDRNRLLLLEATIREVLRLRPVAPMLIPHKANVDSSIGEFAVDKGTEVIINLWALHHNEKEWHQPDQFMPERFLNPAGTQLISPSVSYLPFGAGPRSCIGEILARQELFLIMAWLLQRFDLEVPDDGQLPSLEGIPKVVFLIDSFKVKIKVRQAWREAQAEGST
In words: Inhibition of human testicular microsomal cytochrome P450 17A1 at 150 nM; no inhibition.

Data set [2] deals with T1, Steroid 17-alpha-hydroxylase/17,20 lyase.
Description: Binding affinity for Cytochrome P450 17A1 (17-alpha-hydroxypregnenolone Km=560 nM)
Data set [3] deals with T2, Steroid 17-alpha-hydroxylase/17,20 lyase (Rattus norvegicus, UniProt P11715).
T2 sequence (P11715 whole entry): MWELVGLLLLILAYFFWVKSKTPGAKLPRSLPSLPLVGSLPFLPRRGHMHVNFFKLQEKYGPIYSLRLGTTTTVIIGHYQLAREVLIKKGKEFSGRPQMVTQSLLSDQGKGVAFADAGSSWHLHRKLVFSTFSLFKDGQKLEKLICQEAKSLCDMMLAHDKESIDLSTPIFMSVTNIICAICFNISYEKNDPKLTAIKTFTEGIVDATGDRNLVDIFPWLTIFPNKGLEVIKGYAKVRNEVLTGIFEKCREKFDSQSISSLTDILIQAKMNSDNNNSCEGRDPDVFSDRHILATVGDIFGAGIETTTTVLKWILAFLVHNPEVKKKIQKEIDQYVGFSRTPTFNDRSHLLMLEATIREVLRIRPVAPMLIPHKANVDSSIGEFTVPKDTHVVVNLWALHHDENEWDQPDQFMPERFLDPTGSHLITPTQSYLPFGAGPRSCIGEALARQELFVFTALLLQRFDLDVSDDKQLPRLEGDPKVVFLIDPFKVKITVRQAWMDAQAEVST
In words: Inhibition of rat Cytochrome P450 17A1.

Data set [4] is described as follows: Inhibition of human steroid 5-alpha-reductase.
Data set [5] has as its target T1, Steroid 17-alpha-hydroxylase/17,20 lyase. In words: Inhibition of human testicular microsomal Cytochrome P450 17A1.
For data set [6] the target is unchanged. In words: Inhibition of human testicular microsomal cytochrome P450 17A1 at 150 nM; NI = No inhibition. As to conditions: 0.15 µM; call rule not given here.
Data set [7] addresses T2, Steroid 17-alpha-hydroxylase/17,20 lyase. Briefly: Inhibition of rat cytochrome P450 17A1.
In data set [8] the target is T1, Steroid 17-alpha-hydroxylase/17,20 lyase. The source holds these as a separate data set.
Data set [9] shares this target. In words: Inhibition of human testicular microsomal cytochrome P450 17A1 at 150 nM; NI = No inhibition. As to conditions: 0.15 µM.

As usually defined, the IC50 is the concentration that inhibits the measured activity by half. Low readings indicate greater potency, high ones weaker potency. On to `C[C@]12CC[C@H](O)CC1=CCC1C2CC[C@]2(C)C(n3nccn3)=CCC12` (stereo partly drawn), for which, in [1], the IC50 result was “Not Active”.
As usually defined, the Ki is a dissociation constant, usually derived from enzyme kinetics or from competition with a known ligand. Take `C[C@]12CCC(=O)C=C1CCC1C2CC[C@]2(C)C(n3cncn3)=CCC12` (stereo partly drawn): in data set [2], the Ki came out at 41 nM. Besides, the IC50 in data set [3] worked out at 11 nM; in data set [4], 152 nM; in data set [5] it was 55 nM.
`C[C@]12CC[C@H](O)CC1=CCC1C2CC[C@]2(C)C(n3cnnn3)=CCC12` (stereo partly drawn): the Inhibition result in data set [6] was “Not Active”.
The compound `C[C@]12CCC(=O)C=C1CCC1C2CC[C@]2(C)C(n3ccnc3)=CCC12` (stereo partly drawn) displayed a Ki in data set [2] of 1.9 nM. For the same compound, the IC50 in data set [3] is 8 nM; in data set [4] it was 142 nM; in data set [5], 7 nM.
With `C[C@]12CC[C@H](O)CC1=CC[C@@H]1[C@@H]2CC[C@]2(C)C(n3cncn3)=CC[C@@H]12`, the Ki in data set [2] was determined as 23 nM. Moreover, the IC50 was 160000 nM in [4], 26 nM in data set [7] and 90 nM in data set [5].
For `C[C@]12CC[C@H](O)CC1=CCC1C2CC[C@]2(C)C(n3ccnc3)=CCC12` (stereo partly drawn), the affinity in [2] corresponds to a Ki of 1.2 nM. Besides, the IC50 worked out at 9 nM in data set [3], 400000 nM in data set [4] and 8 nM in data set [5].
For `C[C@]12CCC(=O)C=C1CCC1C2CC[C@]2(C)C(n3ccnn3)=CCC12` (stereo partly drawn), the values for the IC50 in data set [4], in data set [7] and in [5] were 198 nM, 9 nM and 19 nM, respectively. The compound further gave a Ki in data set [8] of 8 nM.
In turn, `C[C@]12CC[C@H](O)CC1=CCC1C2CC[C@]2(C)C(n3ccnn3)=CCC12` (stereo partly drawn) yielded a Ki in data set [2] of 1.4 nM. Further, the IC50 worked out at 10 nM in data set [3], 10000 nM in data set [4] and 13 nM in [5].
In the case of `C[C@]12CC[C@H](O)CC1=CCC1C2CC[C@]2(C)C(n3ncnn3)=CCC12` (stereo partly drawn), in data set [9], the Inhibition entry is listed as “Not Active”.
The compound `CC(C)(C)NC(=O)[C@H]1CC[C@H]2[C@@H]3CC[C@H]4NC(=O)C=C[C@]4(C)[C@H]3CC[C@]12C` [FINASTERIDE] gave an IC50 in data set [4] of 33 nM. This lies in the double-digit nanomolar range.
